Data taken from patent publication US20180243274A1, “ANTIBACTERIAL COMPOSITIONS” (WOCKHARDT LIMITED, priority 2013, published 2018).

How the values were obtained:
[1] = test system: E. coli NCTC 13353 producing CTX-M15 and OXA 1 beta-lactamase enzymes; assay: Time kill study against E. coli NCTC 13353; assay type: cell-based; conditions: for effect on bacterial counts when used alone: throughout the duration of the study
Experimental: (§1) The synergistic killing effect of the combinations according to invention was studied by performing time kill studies. In a typical time kill study, the freshly grown cultures were diluted to the required cell density (initial starting inoculum) in Cation adjusted Muller Hinton broth medium (BD, USA). The antibacterial agents (either alone or in combination) at the required concentrations were added into the culture-containing medium. The samples were incubated under shaking condition (120 rpm) at 37° C. Enumeration of viable bacterial count was done every 2 hour by diluting in normal saline and plating on to the Tryptic Soya Agar plates (BD, USA). The plates were incubated for 24 hours to arrive at the viable bacterial count. The results are expressed in terms of Log 10 CFU per ml. In general, the decrease of 1 Log 10 CFU/ml corresponds to 90% killing of bacteria. Similarly, 2 Log 10 CFU/ml reductions indicates to 99% killing of bacteria and 3 Log 10 CFU/ml reductions is equal to 99.9% killing of bacteria.
E. coli NCTC 13353 produces resistant CTX-M15 and OXA 1 beta-lactamase enzymes.

[2] = test system: clinical isolate of E. coli M50 producing CMY 6, DHA—1/2 beta-lactamase enzymes; assay: Time kill study against clinical isolate E. coli M50; assay type: cell-based; conditions: for effect on bacterial counts when used alone: throughout the duration of the study
Experimental: as §1
The results on antibacterial activity of the antibacterial agent selected from cefixime, cefpodoxime, ceftibuten or cefuroxime alone and in combination with a compound of Formula (I) against E. coli M50 are given in Table 2. E. coli M50 produces resistant CMY 6, DHA-½ beta-lactamase enzymes.

SMILES | Bacterial count (Log10 CFU/ml) 0 hours ([1]; agent alone 1 mcg/ml) [Log10 CFU/ml] | Bacterial count (Log10 CFU/ml) 2 hours ([1]; agent alone 1 mcg/ml) [Log10 CFU/ml] | Bacterial count (Log10 CFU/ml) 4 hours ([1]; agent alone 1 mcg/ml) [Log10 CFU/ml] | Bacterial count (Log10 CFU/ml) 6 hours ([1]; agent alone 1 mcg/ml) [Log10 CFU/ml] | Bacterial count (Log10 CFU/ml) 24 hours ([1]; agent alone 1 mcg/ml) [Log10 CFU/ml] | Bacterial count (Log10 CFU/ml) 0 hour ([2]; agent alone 4 mcg/ml) [Log10 CFU/ml] | Bacterial count (Log10 CFU/ml) 2 hours ([2]; agent alone 4 mcg/ml) [Log10 CFU/ml] | Bacterial count (Log10 CFU/ml) 4 hours ([2]; agent alone 4 mcg/ml) [Log10 CFU/ml] | Bacterial count (Log10 CFU/ml) 6 hours ([2]; agent alone 4 mcg/ml) [Log10 CFU/ml] | Bacterial count (Log10 CFU/ml) 8 hours ([2]; agent alone 4 mcg/ml) [Log10 CFU/ml] | effect on bacterial counts when used alone [1] | effect on bacterial counts when used alone [2] | also measured
C=CC1=C(C(=O)O)N2C(=O)[C@@H](NC(=O)/C(=N\OCC(=O)O)c3csc(N)n3)[C@H]2SC1 [Cefixime, cefixime] | 7.23 | 8.65 | 8.90 | 8.84 | 9.06 | 7.77 | 8.84 | 9.20 | 8.90 | 9.30 |  |  | 
COCC1=C(C(=O)O)N2C(=O)[C@@H](NC(=O)/C(=N\OC)c3csc(N)n3)[C@H]2SC1 [Cefpodoxime, cefpodoxime] | 7.23 | 8.17 | 8.74 | 8.90 | 9.06 | 7.77 | 8.60 | 9.04 | 9.16 | 9.19 |  |  | 
Nc1nc(/C(=C/CC(=O)O)C(=O)N[C@@H]2C(=O)N3C(C(=O)O)=CCS[C@H]23)cs1 [Ceftibuten, ceftibuten] | 7.23 | 8.10 | 8.7 | 9.04 | 9.51 | 7.77 | 8.48 | 8.70 | 9.08 | 9.20 | did not reduce the bacterial counts | did not reduce the bacterial counts | 
CO/N=C(\C(=O)N[C@@H]1C(=O)N2C(C(=O)O)=C(COC(N)=O)CS[C@H]12)c1ccco1 [Cefuroxime, cefuroxime] | 7.23 | 8.25 | 8.80 | 9.38 | 9.48 | 7.77 | 8.58 | 9.02 | 9.2 | 9.50 | did not reduce the bacterial counts | did not reduce the bacterial counts | 
O=C(NOC[C@@H]1CCCN1)[C@@H]1CC[C@@H]2CN1C(=O)N2OS(=O)(=O)O [Compound of Formula (I), (2S, 5R)-7-oxo-N-[(2S)-pyrrolidin-2-ylmethoxy]-6-(sulfooxy)-1,6-diazabicyclo[3.2.1]octane-2-carboxamide] |  |  |  |  |  | 7.77 | 8.02 | 8.09 | 8.07 | 8.08 | did not reduce the bacterial counts | did not reduce the bacterial counts | Bacterial count (Log10 CFU/ml) 0 hours ([1]; alone 4 mcg/ml): 7.23 Log10 CFU/ml; Bacterial count (Log10 CFU/ml) 2 hours ([1]; alone 4 mcg/ml): 7.17 Log10 CFU/ml; Bacterial count (Log10 CFU/ml) 4 hours ([1]; alone 4 mcg/ml): 7.14 Log10 CFU/ml; Bacterial count (Log10 CFU/ml) 6 hours ([1]; alone 4 mcg/ml): 7.11 Log10 CFU/ml; Bacterial count (Log10 CFU/ml) 24 hours ([1]; alone 4 mcg/ml): 7.87 Log10 CFU/ml
C[C@@H](O)[C@H]1C(=O)N2C(C(=O)O)=C(SCCN=CN)C[C@H]12 [Imipenem] | 7.23 | 4.95 | 4.47 | 4.39 | 7.34 |  |  |  |  |  |  |  | Bacterial count (Log10 CFU/ml) 0 hour ([2]; alone 1 mcg/ml): 7.77 Log10 CFU/ml; Bacterial count (Log10 CFU/ml) 2 hours ([2]; alone 1 mcg/ml): 5.60 Log10 CFU/ml; Bacterial count (Log10 CFU/ml) 4 hours ([2]; alone 1 mcg/ml): 7.47 Log10 CFU/ml; Bacterial count (Log10 CFU/ml) 6 hours ([2]; alone 1 mcg/ml): 8.07 Log10 CFU/ml; Bacterial count (Log10 CFU/ml) 8 hours ([2]; alone 1 mcg/ml): 8.47 Log10 CFU/ml
